Data published in patent publication US20050061314A1, “Metered dose inhaler” (Vactura Limited, priority 2001, published 2005).

Assays:
effect of THC = conditions: cited from earlier work
cataleptic effect of THC = conditions: mice; cited from earlier work
GABA = conditions: cited from earlier work
[1] = Andersen Cascade Impactor aerosol characterisation of pMDI solution formulations; format: physicochemical
Experimental: The FPD, which provides a direct measurement of the aerosol particles considered suitable for deposition and retention in the respiratory tract, is calculated as the mass of the particles deposited from stage 3 to the filter (particles with an aerodynamic diameter less than 4.7 μm) in an Andersen Cascade Impactor.
The aerodynamic particle size distribution of an aerosol formulation is characterised using a Multistage Cascade Impactor according to the procedure described in European Pharmacopoeia 2nd edition, 1995, part V.5.9.1, pages 15-17. Generally an Andersen Cascade Impactor (ACI) is utilised. Deposition of the drug on each ACI plate is determined by high performance liquid chromatography (HPLC). Mean metered dose is calculated from the cumulative deposition in the actuator and ACI stages; mean delivered dose is calculated from the cumulative deposition in the ACI. Mean respirable dose (fine particle dose, i.e. FPD) which provides a direct measurement of the aerosol particles is considered suitable for deposition and retention in the respiratory tract, is obtained from the deposition on Stage 3 (S3) to filter (AF) corresponding to particles with an aerodynamic diameter ≦4.7 μm. Smaller particles, with an aerodynamic diameter ≦1.1 μm correspond to the fraction obtained from the deposition on Stage 6 to filter.
The FPD can also be expressed as a percentage of the ex-valve dose or recovered dose (i.e. Fine Particle Fraction: FPF≦4.7 μm or FPF≦1.1 μm). Shot weights are measured by weighing each canister before and after the actuation.
The experiments of example 2 consisted of discharging Δ^9-THC (THC)/ethanol/glycerol/HFA 134a and Δ^9-THC hemisuccinate (THC-HS)/ethanol/glycerol/HFA 134a formulations through actuator inserts housed in a modified Bespak actuator (630 series) into an Andersen Cascade Impactor operated at 28.3 L min^−1. Two product strengths, 100 μg/dose and 1000 μg/dose, were used in combination with 5% or 10% w/w ethanol, and 0.1% or 0.3% glycerol. Experiments were conducted using 0.14 and 0.16 mm diameter, 0.60 mm long, laser drilled actuator orifices in accordance with the invention in its preferred aspects and a third party supplied actuator with an orifice diameter of 0.22 mm. The quantities of drug deposited on the actuator, the throat and the stages of the impactor were measured. The delivered dose, the mass median aerodynamic diameter (MMAD), the geometric standard deviation (GSD), the fine particle dose ≦4.7 μm (FPD≦4.7) and the fine particle dose ≦1.1 μm (FPD≦1.1) were calculated from the results of these experiments and are set out in tables 3 and 4. The FPDs were also expressed as a % fraction of the ex-valve dose (FPF≦4.7, FPF≦1.1). Shot weight was measured by weighing the pMDI before and after discharge. These latter parameters are also set out in tables 3 and 4 along with other results of these experiments.

mice = conditions: cited from earlier work
[2] = mouse brain; cited from earlier work
asthmatic patients = conditions: pMDI with CFC propellant and ethanol; cited from earlier work
[3] = 100 μg, 5% Ethanol, 0.1% Glycerol, HFA134a, 50 μl, Actuator 0.14 mm
[4] = 100 μg/50 μl/134a, 5% Et, 0.1% Gly, 0.14 mm Aluminium insert (4b)
[5] = 100 μg/50 μl/134a, 5% Et, 0.1% Gly, 0.16 mm Al insert (11A)
[6] = 100 μg/50 μl/134a, 5% Et, 0.1% Gly, 0.22 mm Bespak Actuator
[7] = 100 μg/50 μl/134a, 10% Et, 0.3% Gly, 0.14 mm Aluminium insert (4b)
[8] = 1000 μg, 5% Ethanol, 0.1% Glycerol, HFA134a, 50 μl, Actuator 0.14 mm

## CCCCCc1cc(O)c2c(c1)OC(C)(C)c1ccc(C)cc1-2 [CBN, cannabinol]
Effect of THC
  effect on the effect of THC in man: potentates the effect of THC
Cataleptic effect of THC
  effect on cataleptic effect of THC: antagonises cataleptic effect of THC

## CCCCCc1cc(O)c(C/C=C(\C)CCC=C(C)C)c(O)c1 [CBG, cannabigerol]
GABA
  GABA inhibitor potency relative to THC: more potent GABA inhibitor than THC

## CCCCCc1cc(OC(=O)CCC(=O)O)c2c(c1)OC(C)(C)[C@@H]1CCC(C)=C[C@@H]21 [THC-HS, Δ^9-THC hemisuccinate]
[1]; [3]
  Delivered: 97.30 µg
  FPD<1.1 μm: 37.56 µg
  FPD<3.3 μm: 89.66 µg
  FPD<4.7 μm: 91.94 µg
  FPF<1.1 μm: 36.86%
  FPF<3.3 μm: 87.99%
  FPF<4.7: 90.23%
  GSD: 1.7
  MMAD: 1.3 μm
  Recovered: 101.90 µg
  Shot Weight ± SD: 64.7 ± 0.5 mg
[1]; [4]
  Actuator: 4.57 µg
  Delivered: 97.30 µg
  Dose < 1.1 μm: 37.56 µg
  FPD<3.3 μm: 89.66 µg
  FPD<4.7 μm: 91.94 µg
  FPF<1.1 μm: 36.86%
  FPF<3.3 μm: 87.99%
  FPF<4.7: 90.23%
  GSD: 1.7
  MMAD: 1.3 μm
  Recovered: 101.90 µg
  Shot Weight ± SD: 64.7 ± 0.5 mg
  Throat: 3.51 µg
[1]; [5]
  Actuator: 4.88 µg
  Delivered: 93.40 µg
  Dose < 1.1 μm: 28.19 µg
  FPD<3.3 μm: 80.07 µg
  FPD<4.7 μm: 83.56 µg
  FPF<1.1 μm: 28.59%
  FPF<3.3 μm: 81.25%
  FPF<4.7: 84.79%
  GSD: 1.8
  MMAD: 1.4 μm
  Recovered: 98.55 µg
  Shot Weight ± SD: 62.0 ± 0.6 mg
  Throat: 7.52 µg
[1]; [6]
  Actuator: 7.71 µg
  Delivered: 98.00 µg
  Dose < 1.1 μm: 24.30 µg
  FPD<3.3 μm: 77.43 µg
  FPD<4.7 μm: 82.02 µg
  FPF<1.1 μm: 22.99%
  FPF<3.3 μm: 73.25%
  FPF<4.7: 77.60%
  GSD: 1.7
  MMAD: 1.5 μm
  Recovered: 105.70 µg
  Shot Weight ± SD: 62.6 ± 0.4 mg
  Throat: 13.82 µg
[1]; [7]
  Actuator: 4.35 µg
  Delivered: 79.50 µg
  Dose < 1.1 μm: 14.21 µg
  FPD<3.3 μm: 65.50 µg
  FPD<4.7 μm: 70.93 µg
  FPF<1.1 μm: 16.96%
  FPF<3.3 μm: 78.16%
  FPF<4.7: 84.64%
  GSD: 1.7
  MMAD: 1.7 μm
  Recovered: 83.80 µg
  Shot Weight ± SD: 60.7 ± 0.6 mg
  Throat: 5.93 µg
[1]; [8]
  Delivered: 834.3 µg
  FPD<1.1 μm: 138.04 µg
  FPD<3.3 μm: 676.16 µg
  FPD<4.7 μm: 771.92 µg
  FPF<1.1 μm: 15.83%
  FPF<3.3 μm: 77.56%
  FPF<4.7: 88.54%
  GSD: 1.7
  MMAD: 1.9 μm
  Recovered: 871.8 µg
  Shot Weight ± SD: 64.7 ± 0.6 mg

## CCCCCc1cc(O)c2c(c1)OC(C)(CCC=C(C)C)C=C2 (stereo not drawn) [CBC, cannabichromene]
mice
  effect on LD50 of THC: does lower LD50 of THC

## C=C(C)[C@@H]1CCC(C)=C[C@H]1c1c(O)cc(CCCCC)cc1O [CBD, cannabidiol]
[2]
  effect on THC levels in the brain: increases THC levels

## CCCCCc1cc(O)c2c(c1)OC(C)(C)[C@@H]1CCC(C)=C[C@@H]21 [THC, Δ^9-tetrahydrocannabinol, reference compound]
[1]; [3]
  Delivered: 108.2 µg
  FPD<1.1 μm: 42.01 µg
  FPD<3.3 μm: 98.02 µg
  FPD<4.7 μm: 101.71 µg
  FPF<1.1 μm: 36.63%
  FPF<3.3 μm: 85.46%
  FPF<4.7: 88.67%
  GSD: 1.8
  MMAD: 1.3 μm
  Recovered: 114.7 µg
  Shot Weight ± SD: 62.4 ± 0.8 mg
[1]; [8]
  Delivered: 1044.5 µg
  FPD<1.1 μm: 129.7 µg
  FPD<3.3 μm: 735.5 µg
  FPD<4.7 μm: 907.14 µg
  FPF<1.1 μm: 11.69%
  FPF<3.3 μm: 66.32%
  FPF<4.7: 81.79%
  GSD: 1.7
  MMAD: 2.3 μm
  Recovered: 1109.1 µg
  Shot Weight ± SD: 63.8 ± 0.4 mg
Asthmatic patients
  bronchodilatory effect: bronchodilatory effect
